Measurements taken from PubChem BioAssay (NCI).
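How tested: cells in 96-well plates exposed to compound for 48 hours at five concentrations. TGI: concentration producing complete growth inhibition.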

Key:
Experiment in all cases: NCI tumour cell line growth inhibition, 48 h
HL-60(TB) leukemia = tested on: HL-60(TB) leukemia
M19-MEL melanoma = tested on: M19-MEL melanoma
UACC-257 melanoma = tested on: UACC-257 melanoma
CAKI-1 renal = tested on: CAKI-1 renal
A549 NSCLC = tested on: A549 NSCLC
DU-145 prostate = tested on: DU-145 prostate
SF-539 CNS = tested on: SF-539 CNS
UO-31 renal = tested on: UO-31 renal
OVCAR-4 ovarian = tested on: OVCAR-4 ovarian
BT-549 breast = tested on: BT-549 breast
KM20L2 colon = tested on: KM20L2 colon
SN12K1 renal = tested on: SN12K1 renal
CCRF-CEM leukemia = tested on: CCRF-CEM leukemia
OVCAR-3 ovarian = tested on: OVCAR-3 ovarian
786-0 renal = tested on: 786-0 renal
MDA-MB-435 = tested on: MDA-MB-435
UACC-62 melanoma = tested on: UACC-62 melanoma
RXF 393 renal = tested on: RXF 393 renal
NCI-H460 lung = tested on: NCI-H460 lung
SNB-78 CNS = tested on: SNB-78 CNS
OVCAR-8 ovarian = tested on: OVCAR-8 ovarian
DMS 273 small cell lung = tested on: DMS 273 small cell lung
K-562 leukemia = tested on: K-562 leukemia
HOP-62 NSCLC = tested on: HOP-62 NSCLC
SF-268 CNS = tested on: SF-268 CNS
M14 melanoma = tested on: M14 melanoma
MDA-N = tested on: MDA-N
MOLT-4 leukemia = tested on: MOLT-4 leukemia
SN12C renal = tested on: SN12C renal
SNB-75 CNS = tested on: SNB-75 CNS
SK-MEL-28 melanoma = tested on: SK-MEL-28 melanoma
SK-MEL-5 melanoma = tested on: SK-MEL-5 melanoma
DLD-1 colon = tested on: DLD-1 colon
SK-MEL-2 melanoma = tested on: SK-MEL-2 melanoma
SNB-19 CNS = tested on: SNB-19 CNS
HS 578T breast = tested on: HS 578T breast
MCF7 breast = tested on: MCF7 breast
SF-295 CNS = tested on: SF-295 CNS
NCI-H522 lung = tested on: NCI-H522 lung
XF 498 CNS = tested on: XF 498 CNS
NCI-H23 lung = tested on: NCI-H23 lung
NCI/ADR-RES ovarian = tested on: NCI/ADR-RES ovarian
NCI-H226 lung = tested on: NCI-H226 lung
HCT-15 colon = tested on: HCT-15 colon
KM12 colon = tested on: KM12 colon
T-47D breast = tested on: T-47D breast
HCT-116 colon = tested on: HCT-116 colon
HOP-92 NSCLC = tested on: HOP-92 NSCLC
IGROV1 ovarian = tested on: IGROV1 ovarian
MDA-MB-231 breast = tested on: MDA-MB-231 breast
SR leukemia = tested on: SR leukemia
SW-620 colon = tested on: SW-620 colon
MALME-3M melanoma = tested on: MALME-3M melanoma
DMS 114 small cell lung = tested on: DMS 114 small cell lung
HT29 colon = tested on: HT29 colon
A498 renal = tested on: A498 renal
EKVX NSCLC = tested on: EKVX NSCLC
HOP-18 NSCLC = tested on: HOP-18 NSCLC
TK-10 renal = tested on: TK-10 renal
LOX IMVI melanoma = tested on: LOX IMVI melanoma
ACHN renal = tested on: ACHN renal
RPMI-8226 leukemia = tested on: RPMI-8226 leukemia
SK-OV-3 ovarian = tested on: SK-OV-3 ovarian
HCC-2998 colon = tested on: HCC-2998 colon
OVCAR-5 ovarian = tested on: OVCAR-5 ovarian
P388 leukemia = tested on: P388 leukemia
U251 CNS = tested on: U251 CNS
PC-3 prostate = tested on: PC-3 prostate
COLO 205 colon = tested on: COLO 205 colon
P388/ADR leukemia = tested on: P388/ADR leukemia

c1cc2n(n1)CCN2
TGI (HL-60(TB) leukemia): 5.15 mM | TGI (M19-MEL melanoma): > 10 mM | TGI (UACC-257 melanoma): > 10 mM | TGI (CAKI-1 renal): 4.68 mM | TGI (A549 NSCLC): 8.58 mM | TGI (DU-145 prostate): > 10 mM | TGI (SF-539 CNS): 4.99 mM | TGI (UO-31 renal): 9.89 mM | TGI (OVCAR-4 ovarian): > 9.78 mM | TGI (BT-549 breast): > 10 mM | TGI (KM20L2 colon): > 10 mM | TGI (SN12K1 renal): 5.98 mM | TGI (CCRF-CEM leukemia): 6.68 mM | TGI (OVCAR-3 ovarian): > 10 mM | TGI (786-0 renal): > 7.1 mM | TGI (MDA-MB-435): > 10 mM | TGI (UACC-62 melanoma): 6.54 mM | TGI (RXF 393 renal): 9.59 mM | TGI (NCI-H460 lung): 6.71 mM | TGI (SNB-78 CNS): > 8.74 mM | TGI (OVCAR-8 ovarian): > 9.4 mM | TGI (DMS 273 small cell lung): 2.44 mM | TGI (K-562 leukemia): > 10 mM | TGI (HOP-62 NSCLC): > 9.55 mM | TGI (SF-268 CNS): 8.2 mM | TGI (M14 melanoma): 5.76 mM | TGI (MDA-N): > 10 mM | TGI (MOLT-4 leukemia): 9.88 mM | TGI (SN12C renal): 7.05 mM | TGI (SNB-75 CNS): 9.46 mM | TGI (SK-MEL-28 melanoma): > 10 mM | TGI (SK-MEL-5 melanoma): > 7.74 mM | TGI (DLD-1 colon): > 10 mM | TGI (SK-MEL-2 melanoma): > 7.5 mM | TGI (SNB-19 CNS): > 10 mM | TGI (HS 578T breast): > 5.49 mM | TGI (MCF7 breast): > 8.65 mM | TGI (SF-295 CNS): 4.35 mM | TGI (NCI-H522 lung): > 7.74 mM | TGI (XF 498 CNS): 6.96 mM | TGI (NCI-H23 lung): 6.72 mM | TGI (NCI/ADR-RES ovarian): 6.59 mM | TGI (NCI-H226 lung): > 9.35 mM | TGI (HCT-15 colon): > 10 mM | TGI (KM12 colon): > 10 mM | TGI (T-47D breast): > 10 mM | TGI (HCT-116 colon): > 10 mM | TGI (HOP-92 NSCLC): > 10 mM | TGI (IGROV1 ovarian): > 10 mM | TGI (MDA-MB-231 breast): > 10 mM | TGI (SR leukemia): > 9.01 mM | TGI (SW-620 colon): > 10 mM | TGI (MALME-3M melanoma): 9.92 mM | TGI (DMS 114 small cell lung): > 8.17 mM | TGI (HT29 colon): > 10 mM | TGI (A498 renal): 6.27 mM | TGI (EKVX NSCLC): 6.63 mM | TGI (HOP-18 NSCLC): > 10 mM | TGI (TK-10 renal): > 10 mM | TGI (LOX IMVI melanoma): 7.69 mM | TGI (ACHN renal): 5.33 mM | TGI (RPMI-8226 leukemia): > 10 mM | TGI (SK-OV-3 ovarian): > 7.35 mM | TGI (HCC-2998 colon): > 7.04 mM | TGI (OVCAR-5 ovarian): > 10 mM | TGI (P388 leukemia): 2.77 mM | TGI (U251 CNS): 5.74 mM | TGI (PC-3 prostate): > 10 mM | TGI (COLO 205 colon): > 10 mM | TGI (P388/ADR leukemia): 4.83 mM

COc1cc2c(ccc3c4cc(OC)c(OC)cc4c[n+](C)c23)cc1O
TGI (HL-60(TB) leukemia): > 0.075 mM | TGI (M19-MEL melanoma): > 0.075 mM | TGI (UACC-257 melanoma): > 0.075 mM | TGI (CAKI-1 renal): > 0.075 mM | TGI (A549 NSCLC): > 0.075 mM | TGI (SF-539 CNS): 0.0287 mM | TGI (UO-31 renal): > 0.075 mM | TGI (OVCAR-4 ovarian): > 0.0658 mM | TGI (KM20L2 colon): > 0.075 mM | TGI (SN12K1 renal): 0.014 mM | TGI (CCRF-CEM leukemia): 0.0346 mM | TGI (OVCAR-3 ovarian): 0.0543 mM | TGI (UACC-62 melanoma): 0.0115 mM | TGI (RXF 393 renal): > 0.075 mM | TGI (NCI-H460 lung): > 0.075 mM | TGI (SNB-78 CNS): > 0.075 mM | TGI (OVCAR-8 ovarian): 0.062 mM | TGI (DMS 273 small cell lung): > 0.075 mM | TGI (K-562 leukemia): > 0.075 mM | TGI (HOP-62 NSCLC): 0.021 mM | TGI (SF-268 CNS): 0.00609 mM | TGI (MOLT-4 leukemia): 0.0192 mM | TGI (SN12C renal): 0.0221 mM | TGI (SNB-75 CNS): 0.0164 mM | TGI (SK-MEL-28 melanoma): > 0.075 mM | TGI (SK-MEL-5 melanoma): 0.0527 mM | TGI (DLD-1 colon): > 0.075 mM | TGI (SK-MEL-2 melanoma): > 0.0715 mM | TGI (SNB-19 CNS): 0.0324 mM | TGI (MCF7 breast): > 0.075 mM | TGI (SF-295 CNS): 0.0549 mM | TGI (NCI-H522 lung): 0.00186 mM | TGI (XF 498 CNS): 0.0192 mM | TGI (NCI-H23 lung): 0.0683 mM | TGI (NCI/ADR-RES ovarian): > 0.075 mM | TGI (NCI-H226 lung): 0.00914 mM | TGI (HCT-15 colon): > 0.075 mM | TGI (KM12 colon): > 0.075 mM | TGI (HCT-116 colon): > 0.0603 mM | TGI (HOP-92 NSCLC): > 0.075 mM | TGI (IGROV1 ovarian): > 0.075 mM | TGI (SW-620 colon): > 0.0473 mM | TGI (MALME-3M melanoma): 0.0664 mM | TGI (DMS 114 small cell lung): 0.0747 mM | TGI (HT29 colon): > 0.075 mM | TGI (A498 renal): 0.0658 mM | TGI (EKVX NSCLC): > 0.0715 mM | TGI (HOP-18 NSCLC): > 0.075 mM | TGI (LOX IMVI melanoma): > 0.075 mM | TGI (RPMI-8226 leukemia): > 0.075 mM | TGI (SK-OV-3 ovarian): > 0.0722 mM | TGI (HCC-2998 colon): 0.075 mM | TGI (OVCAR-5 ovarian): > 0.0345 mM | TGI (P388 leukemia): 0.00521 mM | TGI (U251 CNS): 0.00294 mM | TGI (COLO 205 colon): > 0.075 mM | TGI (P388/ADR leukemia): > 0.075 mM
